Test results reported in patent US12391675B2, “NLRP3 modulators” (INNATE TUMOR IMMUNITY, INC., priority 2019, dated 2025).

Target: T1, NLRP3 (Homo sapiens, UniProt Q96P20)
T1 construct: host or cells: PMA-differentiated THP-1 cells
Assay: Measurement of IL-1β production in PMA-differentiated THP-1 cells (NLRP3 hIL1B EC50)
Format: cell-based
Conditions: not given
Experimental: Measurement of IL-1β Production in PMA-Differentiated THP-1 Cells
THP-1 cells were purchased from the American Type Culture Collection and sub-cultured according to instructions from the supplier. Prior to experiments, cells were cultured in RPMI 1640 containing 10% heat inactivated FBS, penicillin (100 units/ml) and streptomycin (100 μg/ml), and maintained in log phase prior to experimental setup. Prior to the experiment THP-1 were treated with PMA (Phorbol 12-myristate 13-acetate) (10 μg/ml) for 24 hours. The day of the experiment the media was removed and attaching cells were treated with trypsin for 2 minutes, cells were then collected, washed with PBS (phosphate buffer saline), spin down, resuspended in 2% heat inactivated FBS with RPMI at a concentration of 1×10^6 cells/ml, and 100 μl was plated in a 96 well plate. Compounds were dissolved in dimethyl sulfoxide (DMSO) and added to the culture medium to achieve desired concentration (e.g. 100, 30, 10, 3, 1, 0.3 or 0.1 μM). Cells were incubated with compounds for 4 hours. Cell free supernatant was collected and the production of IL-1β was evaluated by ELISA. A vehicle only control was run concurrently with each experiment. Final DMSO concentration was 1%.
Measurement of IL-1β Production in PMA-Differentiated THP-1 Cells (Alternative Procedure)
THP-1 cells were purchased from the American Type Culture Collection and sub-cultured according to instructions from the supplier. Prior to experiments, cells were cultured in RPMI 1640 containing 10% heat inactivated FBS, penicillin (100 units/ml), streptomycin (100 μg/ml), HEPES (10 mM) and sodium pyruvate (1 mM) and maintained in log phase prior to experimental setup. Prior to the experiment, THP-1 cells were treated with PMA (Phorbol 12-myristate 13-acetate) (20 μg/ml) overnight. The day of the experiment, the media was removed and attached cells were treated with trypsin for 2 minutes, cells were then collected, washed with PBS (phosphate buffer saline), pelleted by centrifugation and resuspended in 2% heat inactivated FBS with RPMI at a concentration of 50,000 cells/well in a 384 well plate. Cell free supernatant was collected and the production of IL-1β was evaluated by ELISA. Compounds were dissolved in dimethyl sulfoxide (DMSO) and added to the culture medium to achieve desired concentration (e.g. 100, 30, 10, 3, 1, 0.3 or 0.1 μM). Cells were incubated with compounds for 2 hours. A vehicle only control was run concurrently with each experiment. Final DMSO concentration was 1%.
Measurement of IL-1β Production—hTRF Protocol (Second Alternative Procedure)
Serial dilutions of compounds in DMSO were added to low volume 384 well plates at 100 nl/well using an ECHO 550 acoustic dispenser (Labcyte) to achieve final starting concentration of 10 μM in assay.
THP-1 cells in RPMI (Gibco, 11875) media with 10% FBS at a density of 1×10^6 cell/ml in a T175 flask were treated with a final concentration of phorbol 12-myristate 13-acetate (PMA) (Sigma, P1585) of 50 ng/ml overnight at 37° C. at 5% CO2 for differentiation. Cells were harvested the next day after rinsing well wth dPBS using 0.5% trypsin. A cell solution was prepared of 1×10^6 cells/ml for 50,000 cells in 50 μl/well in RPMI media with 2% FBS. Cells were plated using a multichannel pipette onto the compound dilutions in Greiner, 384 well, black clear bottom tissue culture treated plates (781090). The plates were incubated in 37° C. incubator at 5% CO2 for 2 hours.
After the 2 hour incubation, the cell plates were spun in the centrifuge for 5 minutes at 1200 rpm. Using the Felix (CyBio), 8 μl of the supernatant was transferred to 384 well, low volume, white proxy plates. (Perkin Elmer, 6008230). A human IL1beta hTRF kit was used to analyze the supernatant (CISBIO, 62HIL1BPEG). The kit instructions were followed for preparing the IL1Beta standard curve and then the antibodies from the kit were diluted 1:40 rather than 1:20 as kit instructed. […]

T1 sequence (Q96P20 whole entry): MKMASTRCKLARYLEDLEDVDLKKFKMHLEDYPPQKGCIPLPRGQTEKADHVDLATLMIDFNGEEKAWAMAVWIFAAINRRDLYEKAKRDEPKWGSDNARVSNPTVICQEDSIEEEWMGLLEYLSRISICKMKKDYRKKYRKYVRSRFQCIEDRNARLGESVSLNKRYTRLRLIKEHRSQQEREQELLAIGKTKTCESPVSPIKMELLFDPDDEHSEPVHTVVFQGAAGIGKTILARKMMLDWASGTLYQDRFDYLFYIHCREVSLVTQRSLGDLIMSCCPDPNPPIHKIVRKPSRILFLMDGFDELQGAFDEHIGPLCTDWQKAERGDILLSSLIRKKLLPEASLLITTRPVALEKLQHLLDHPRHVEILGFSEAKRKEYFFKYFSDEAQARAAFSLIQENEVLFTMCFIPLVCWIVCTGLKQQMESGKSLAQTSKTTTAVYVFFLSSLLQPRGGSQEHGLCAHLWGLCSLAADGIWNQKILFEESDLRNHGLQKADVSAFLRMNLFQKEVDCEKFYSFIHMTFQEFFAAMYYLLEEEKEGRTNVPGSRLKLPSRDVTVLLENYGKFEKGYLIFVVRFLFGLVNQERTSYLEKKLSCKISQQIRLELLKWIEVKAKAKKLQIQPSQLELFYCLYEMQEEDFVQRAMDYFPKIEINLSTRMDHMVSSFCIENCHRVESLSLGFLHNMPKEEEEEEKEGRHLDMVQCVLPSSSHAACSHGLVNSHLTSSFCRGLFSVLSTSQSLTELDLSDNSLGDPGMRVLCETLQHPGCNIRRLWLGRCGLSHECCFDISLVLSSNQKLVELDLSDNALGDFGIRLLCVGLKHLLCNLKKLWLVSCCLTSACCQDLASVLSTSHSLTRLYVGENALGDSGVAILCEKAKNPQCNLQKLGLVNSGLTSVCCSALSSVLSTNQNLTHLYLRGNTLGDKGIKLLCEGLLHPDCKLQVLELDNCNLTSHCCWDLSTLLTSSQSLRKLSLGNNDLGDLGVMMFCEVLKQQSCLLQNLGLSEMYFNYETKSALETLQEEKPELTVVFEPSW

| SMILES | EC50 [nM] |
| --- | --- |
| C=CC12CCC(CNc3cc(N)nc4cc(-c5ccn[nH]5)ccc34)(CC1)CO2 [Example 25, 7-(1H-pyrazol-3-yl)-N4-((1-vinyl-2-oxabicyclo[2.2.2]octan-4-yl)methyl)quinoline-2,4-diamine] | 2000 |
| Nc1nc(N[C@H]2C[C@@H]3C[C@H]2C[C@H]3O)c2ccc(-c3ccn[nH]3)cc2n1 (single isomer, unassigned) [Example 43B] | 1110 |
| Nc1nc(N[C@@H]2C[C@H]3C[C@H](O)[C@@H]2O3)c2ccc(-c3ccn[nH]3)cc2n1 (racemic) [Example 31B, rac-(1R,2S,4S,6R)-6-((2-amino-7-(1H-pyrazol-5-yl)quinazolin-4-yl)amino)-7-oxabicyclo[2.2.1]heptan-2-ol] | 1850 |
| Nc1cc(NCC23CC(CO)(C2)C3)c2ccc(-c3ccn[nH]3)cc2n1 [Example 52, (3-(((2-amino-7-(1H-pyrazol-5-yl)quinolin-4-yl)amino)methyl)bicyclo[1.1.1]pentan-1-yl)methanol] | 980 |
| Nc1nc(N[C@H]2C[C@@H]3C[C@H]2C[C@H]3O)c2ccc(-c3ccn[nH]3)cc2n1 (single isomer, unassigned) [Example 43A] | 1640 |
| Nc1cc(NCC23CCC(CC2)OC3)c2ccc(-c3ccsc3)cc2n1 [Example 49, N4-((2-oxabicyclo[2.2.2]octan-4-yl)methyl)-7-(thiophen-3-yl)quinoline-2,4-diamine] | 540 |
| CC(C)(C)OC(=O)N1CCC2(CC1)CC2Nc1nc(N)nc2cc(-c3cc[nH]n3)ccc12 (racemic) [Example 27, (rac)-tert-butyl 1-((2-amino-7-(1H-pyrazol-3-yl)quinazolin-4-yl)amino)-6-azaspiro[2.5]octane-6-carboxylate] | 390 |
| Nc1nc(NC2CC3CC(O)C2C3)c2ccc(-c3ccn[nH]3)cc2n1 (single isomer, unassigned) [Example 41A] | 160 |
| Nc1nc(N[C@@H]2[C@@H]3COC[C@@H]32)c2ccc(-c3ccn[nH]3)cc2n1 [Example 6] | 310 |
| Nc1nc(N2CC3CC2CO3)c2ccc(-c3cc[nH]n3)cc2n1 (racemic) [Example 9, rac-4-(2-oxa-5-azabicyclo[2.2.1]heptan-5-yl)-7-(1H-pyrazol-3-yl)quinazolin-2-amine] | 680 |
| Nc1nc(NC2CC23CC3)c2ccc(-c3cc[nH]n3)cc2n1 (single isomer, unassigned) [Example 36A] | 85 |
| Nc1nc(N[C@H]2C[C@@H]3C[C@H]2[C@@H](O)C3)c2ccc(-c3ccn[nH]3)cc2n1 (racemic) [Example 44, rac-(1R,2S,4S,6S)-6-((2-amino-7-(1H-pyrazol-5-yl)quinazolin-4-yl)amino)bicyclo[2.2.1]heptan-2-ol] | 2370 |

Further compounds by falling EC50, results first:

| EC50 [nM] | SMILES |
| --- | --- |
| 3960 | Nc1nc(NCC23CC(CO)(C2)C3)c2ccc(-c3ccn[nH]3)cc2n1 [Example 34, (3-(((2-amino-7-(1H-pyrazol-5-yl)quinazolin-4-yl)amino)methyl)bicyclo[1.1.1]pentan-1-yl)methanol] |
| 2120 | Nc1nc(N[C@H]2C[C@@H]3C[C@H]2[C@@H](O)C3)c2ccc(-c3ccn[nH]3)cc2n1 (single isomer, unassigned) [Example 45A] |
| 1210 | Nc1nc(N[C@H]2C[C@H]3O[C@@H]2C[C@@H]3O)c2ccc(-c3ccn[nH]3)cc2n1 (racemic) [Example 31A, rac-(1R,2S,4R,5S)-5-((2-amino-7-(1H-pyrazol-5-yl)quinazolin-4-yl)amino)-7-oxabicyclo[2.2.1]heptan-2-ol] |
| 570 | Nc1cc(NCC23CCC(CC2)OC3)c2ccc(-c3cc[nH]n3)cc2n1 [Example 48, N4-((2-oxabicyclo[2.2.2]octan-4-yl)methyl)-7-(1H-pyrazol-3-yl)quinoline-2,4-diamine] |
| 190 | Nc1nc(NC2CC23CC3)c2ccc(-c3cc[nH]n3)cc2n1 (stereo not drawn) [Example 35] |
| 130 | Nc1cc(NC23CC(CO)(C2)C3)c2ccc(-c3ccn[nH]3)cc2n1 [Example 16, (3-((2-amino-7-(1H-pyrazol-5-yl)quinolin-4-yl)amino)bicyclo[1.1.1]pentan-1-yl)methanol] |
| 120 | Nc1nc(N[C@@H]2C[C@H]3CC[C@@H]2O3)c2ccc(-c3ccn[nH]3)cc2n1 (racemic) [Example 1, rac-N4-((1R,2S,4S)-7-oxabicyclo[2.2.1]heptan-2-yl)-7-(1H-pyrazol-5-yl)quinazoline-2,4-diamine] |

Target: T2, human TLR7 (Homo sapiens, UniProt Q9NYK1)
T2 construct: host or cells: human HEK-Blue cells co-expressing TLR7 and an NF-kB/AP1-inducible SEAP reporter
T2 sequence (Q9NYK1 27-1049): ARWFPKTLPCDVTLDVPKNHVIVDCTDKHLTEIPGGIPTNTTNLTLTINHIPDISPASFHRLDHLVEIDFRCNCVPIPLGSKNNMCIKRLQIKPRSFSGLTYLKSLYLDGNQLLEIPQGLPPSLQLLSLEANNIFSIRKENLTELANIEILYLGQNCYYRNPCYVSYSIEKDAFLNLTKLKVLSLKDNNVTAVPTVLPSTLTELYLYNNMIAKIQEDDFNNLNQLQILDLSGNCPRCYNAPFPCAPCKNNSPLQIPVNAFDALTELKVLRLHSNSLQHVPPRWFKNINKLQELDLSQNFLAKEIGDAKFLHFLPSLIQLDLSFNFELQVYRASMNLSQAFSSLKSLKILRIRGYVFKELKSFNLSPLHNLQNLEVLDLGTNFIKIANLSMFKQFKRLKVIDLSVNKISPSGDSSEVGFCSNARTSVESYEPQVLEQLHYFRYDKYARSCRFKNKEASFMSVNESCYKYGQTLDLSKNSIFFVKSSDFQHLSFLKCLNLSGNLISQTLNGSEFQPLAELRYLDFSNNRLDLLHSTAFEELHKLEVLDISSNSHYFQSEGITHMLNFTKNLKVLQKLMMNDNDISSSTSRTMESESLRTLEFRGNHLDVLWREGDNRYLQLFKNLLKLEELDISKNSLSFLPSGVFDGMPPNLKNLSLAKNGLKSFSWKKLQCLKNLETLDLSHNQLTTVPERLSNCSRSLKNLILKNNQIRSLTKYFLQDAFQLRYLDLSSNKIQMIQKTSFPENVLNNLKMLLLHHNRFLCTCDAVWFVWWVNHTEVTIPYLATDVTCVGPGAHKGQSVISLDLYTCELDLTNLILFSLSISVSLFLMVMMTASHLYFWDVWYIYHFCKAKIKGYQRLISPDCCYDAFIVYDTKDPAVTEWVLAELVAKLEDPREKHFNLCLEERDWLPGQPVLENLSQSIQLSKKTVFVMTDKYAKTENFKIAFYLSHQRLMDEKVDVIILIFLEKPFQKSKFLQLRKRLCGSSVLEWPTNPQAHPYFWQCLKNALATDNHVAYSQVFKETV
Assay: In vitro human TLR7 binding reporter assay (HEK-Blue cells, NF-kB/AP1-inducible SEAP reporter)
Format: cell-based
Conditions: HEK-Blue cells expressing TLR7, SEAP reporter; read-out: TLR7 agonist EC50
Experimental: In Vitro Human TLR7 and TLR8 Binding Reporter Assays
Logarithmically-growing human HEK-Blue cells co-expressing a TLR7 or TLR8 gene and a NF-kB/AP1-inducible SEAP (secreted embryonic alkaline phosphatase; Invivogen, San Diego, CA) reporter gene are added to individual wells of a 384-well plate (15,000 cells per 20 μL per well) and maintained for 24 h at 37° C., 5% CO2. Test compounds or DMSO are distributed to separate wells the next day using acoustic liquid handling technology (100 nL per well) and cells are subsequently incubated for 18 h at 37° C., 5% CO2. Cellular SEAP production is measured using an Envision plate reader instrument thirty minutes after adding freshly-made Quanti-Blue reagent (prepared by following manufacturer instructions; Invivogen, San Diego, CA) to the HEK-Blue TLR Nf-kB-SEAP cell reactions. All EC50 values (half-maximal effective concentration) are determined using proprietary data analysis software.

| EC50 [nM] | SMILES |
| --- | --- |
| < 50000 | C=CC12CCC(CNc3cc(N)nc4cc(-c5ccn[nH]5)ccc34)(CC1)CO2 [Example 25, 7-(1H-pyrazol-3-yl)-N4-((1-vinyl-2-oxabicyclo[2.2.2]octan-4-yl)methyl)quinoline-2,4-diamine] |
| < 50000 | Nc1cc(NC23CC(CO)(C2)C3)c2ccc(-c3ccn[nH]3)cc2n1 [Example 16, (3-((2-amino-7-(1H-pyrazol-5-yl)quinolin-4-yl)amino)bicyclo[1.1.1]pentan-1-yl)methanol] |
